In test [1] the test system is Green Peach Aphid ("GPA") (Myzus Persicae) (MYZUPE). Put plainly: Bioassay on green peach aphid (GPA), foliar spray on infested cabbage seedlings. It is filed as in vivo. As to conditions: 72 h, 200 ppm spray on cabbage leaves, live aphids counted after three days, Abbott's correction, read-out: MYZUPE rating (% Control of Mortality). The text has this:
Bioassays on Green Peach Aphid (“GPA”) (Myzus Persicae) (MYZUPE.)
GPA is the most significant aphid pest of peach trees, causing decreased growth, shriveling of leaves, and the death of various tissues. It is also hazardous because it acts as a vector for the transport of plant viruses, such as potato virus Y and potato leafroll virus to members of the nightshade/potato family Solanaceae, and various mosaic viruses to many other food crops. GPA attacks such plants as broccoli, burdock, cabbage, carrot, cauliflower, daikon, eggplant, green beans, lettuce, macadamia, papaya, peppers, sweet potatoes, tomatoes, watercress and zucchini among other plants. GPA also attacks many ornamental crops such as carnations, chrysanthemum, flowering white cabbage, poinsettia and roses. GPA has developed resistance to many pesticides.
Several molecules disclosed herein were tested against GPA using procedures described below.
Cabbage seedling grown in 3-in pots, with 2-3 small (3-5 cm) true leaves, were used as test substrate. The seedlings were infested with […] (wingless adult and nymph stages) one day prior to chemical application. Four posts with individual seedlings were used for each treatment. Test compounds (2 mg) were dissolved in 2 mL of acetone/methanol (1:1) solvent, forming stock solutions of 1000 ppm test compound. The stock solutions were diluted 5× with 0.025% Tween 20 in water to obtain the solution at 200 ppm test compound. A hand-held aspirator-type sprayer was used for spraying a solution to both sides of the cabbage leaves until runoff. Reference plants (solvent check) were sprayed with the diluent only containing 20% by volume acetone/methanol (1:1) solvent. Treated plants were held in a holding room for three days at approximately 25° C. and ambient relative humidity (RH) prior to grading. Evaluation was conducted by counting the number of live aphids per plant under a microscope. Percent Control was measured by using Abbott's correction formula (W. S. Abbott, “A Method of Computing the Effectiveness of an Insecticide” J. Econ. Entomol 18 (1925), pp. 265-267) as follows.
Corrected % Control=100*(X−Y)/X • where • X=No. of live aphids on solvent check plants and • Y=No. of live aphids on treated plants
The results are indicated in the table entitled “Table 1: GPA (MYZUPE) and sweetpotato whitefly-crawler (BEMITA) Rating Table”.

Test [2] deals with Sweetpotato Whitefly Crawler (Bemisia Tabaci) (BEMITA). The test can be described thus: Bioassay on sweetpotato whitefly crawler, foliar spray on infested cotton plants. The test is classed as in vivo. The conditions noted are these: 200 ppm spray on cotton leaves, live nymphs counted after 8-9 days, Abbott's correction, read-out: BEMITA rating (% Control of Mortality). The text has this: Bioassays on Sweetpotato Whitefly Crawler (Bemisia Tabaci) (BEMITA.)
The sweetpotato whitefly, Bemisia tabaci (Gennadius), has been recorded in the United States since the late 1800s. In 1986 in Florida, Bemisia tabaci became an extreme economic pest. Whiteflies usually feed on the lower surface of their host plant leaves. From the egg hatches a minute crawler stage that moves about the leaf until it inserts its microscopic, threadlike mouthparts to feed by sucking sap from the phloem. Adults and nymphs excrete honeydew (largely plant sugars from feeding on phloem), a sticky, viscous liquid in which dark sooty molds grow. Heavy infestations of adults and their progeny can cause seedling death, or reduction in vigor and yield of older plants, due simply to sap removal. The honeydew can stick cotton lint together, making it more difficult to gin and therefore reducing its value. Sooty mold grows on honeydew-covered substrates, obscuring the leaf and reducing photosynthesis, and reducing fruit quality grade. It transmitted plant-pathogenic viruses that had never affected cultivated crops and induced plant physiological disorders, such as tomato irregular ripening and squash silverleaf disorder. Whiteflies are resistant to many formerly effective insecticides.
Cotton plants grown in 3-inch pots, with 1 small (3-5 cm) true leaf, were used at test substrate. The plants were placed in a room with whitely adults. Adults were allowed to deposit eggs for 2-3 days. After a 2-3 day egg-laying period, plants were taken from the adult whitefly room. Adults were blown off leaves using a hand-held Devilbliss sprayer (23 psi). Plants with egg infestation (100-300 eggs per plant) were placed in a holding room for 5-6 days at 82° F. and 50% RH for egg hatch and crawler stage to develop. Four cotton plants were used for each treatment. Compounds (2 mg) were dissolved in 1 mL of acetone solvent, forming stock solutions of 2000 ppm. The stock solutions were diluted 10× with 0.025% Tween 20 in water to obtain a test solution at 200 ppm. A hand-held Devilbliss sprayer was used for spraying a solution to both sides of cotton leaf until runoff. Reference plants (solvent check) were sprayed with the diluent only. Treated plants were held in a holding room for 8-9 days at approximately 82° F. and 50% RH prior to grading. Evaluation was conducted by counting the number of live nymphs per plant under a microscope.

For the molecule `O=C(CCSCCC(F)(F)F)Nc1cn(-c2cccnc2)nc1Cl` [Compound 5.5, N-(3-Chloro-1-(pyridin-3-yl)-1H-pyrazol-4-yl)-3-((3,3,3-trifluoropropyl)thio)-propanamide], the mortality (as a rule, the percentage killed) at 200 ppm in test [1] is 80 to 100%; in test [2], 0 to 80%.

As to `ClC1=NN(c2cccnc2)CC1` [Compound 5a, 3-(3-Chloro-4,5-dihydro-1H-pyrazol-1-yl)pyridine], the mortality at 200 ppm in test [1] and in test [2] was 0 to 80% throughout.

As to `O=C(CCCl)Nc1cn(-c2cccnc2)nc1Cl` [Compound 5e, 3-Chloro-N-(3-chloro-1-(pyridine-3-yl)-1H-pyrazol-4-yl)propanamide], the mortality at 200 ppm in test [1] and in test [2] was 80 to 100% in each case.

On to `CCN(C(=O)CCSCCC(F)(F)F)c1cn(-c2cccnc2)nc1Cl` [Compound 8.5, N-(3-Chloro-1-(pyridin-3-yl)-1H-pyrazol-4-yl)-N-ethyl-3-((3,3,3-trifluropropyl)thio)propanamide], for which the mortality at 200 ppm in test [1] and in test [2] was 80 to 100% throughout.

Take `CCN(C(=O)CC[S+]([O-])CCC(F)(F)F)c1cn(-c2cccnc2)nc1Cl` (stereo not shown) [Compound 9.5, N-(3-Chloro-1-(pyridin-3-yl)-1H-pyrazol-4-yl)-N-ethyl-3-((3,3,3-trifluropropyl)sulfoxo)propanamide]: the mortality at 200 ppm in test [1] and in test [2] was 80 to 100% each time.

The values are drawn from patent publication US20170101392A1, “PROCESSES FOR THE PREPARATION OF PESTICIDAL COMPOUNDS” (Dow AgroSciences LLC, priority 2013, published 2017).
